Data reported in patent US4569801A, “Alkylsulfonamidophenylalkylamines” (priority 1984, dated 1986).
Read-outs that look alike come from different tables or passages of the source.

How the values were obtained:
[1] = tested on: ventricular effective refractory period; assay: Ventricular effective refractory period in halothane-anesthetized dogs; format: in vivo; details: for ED (+30 msec): Canis lupus familiaris; for I.D./I.V. (ratio of intraduodenal to intravenous dose): ratio of doses for +30 msec refractory period
Method: Certain of the compounds of the present invention were tested in halothane-anesthetized dogs in an effort to evaluate the effectiveness of the compounds in increasing the ventricular effective refractory period. Table 2 provides the quantity of specified compound in mg/kg necessary to increase the aforementioned refractory period by 30 msec. when administered either intravenously or intraduadenally. The compounds were tested against clofilium and N-ethyl-N-heptyl-4-nitrobenzenebutanamine, ethanedioic acid for comparative purposes.

[2] = tested on: normal canine Purkinje fibers; assay: Action potential duration of normal canine Purkinje fibers superfused in vitro (standard electrophysiological techniques); format: cell-based; details: Canis lupus familiaris, 10^-7 M, Ringer's solution at 35° C., driven at 1 Hz, read-out: Percent Increase in Action Potential Duration (at 95% of full repolarization)
Method: The antiarrhythmic activity of the compounds provided by the present invention was determined by the use of standard electrophysiological techniques to measure resting potential, action potential amplitude, duration, rate of rise and effective refractory periods of normal canine Purkinje fibers superfused in vitro with Ringer's solution at 35° C. and driven at a constant frequency of 1 Hz. Table 1 presents the data obtained for a number of compounds of the invention when evaluated in this test. The data presented is the percent increase in the action potential duration at 95% of full repolarization at 10^-7 M.

[3] = clofilium and similar quaternary ammonium salts; background; cited from earlier work
[4] = intraduodenal, read-out: quantity of compound necessary to increase the ventricular effective refractory period by 30 msec., Intraduodenal
[5] = intravenous, read-out: quantity of compound necessary to increase the ventricular effective refractory period by 30 msec., Intravenous

SMILES | ED (+30 msec) [1, 4] [mg/kg] | ED (+30 msec) [1, 5] [mg/kg] | I.D./I.V. (ratio of intraduodenal to intravenous dose) [1] | activation at 0.1 µM [2] [%] | oral bioavailability [3]
CCCCCCCN(CCCC)C(C)CCCc1ccc(NS(C)(=O)=O)cc1 (centres unmarked) [Example 4, N-[4-[4-(Butylheptylamino)pentyl]phenyl]methanesulfonamide] | 4 | 0.25 | 16 | – | –
CCCCCCCN(CC)CCCCc1ccc(NS(C)(=O)=O)cc1 [Example 1, N-[4-[4-(Ethylheptylamino)butyl]phenyl]methanesulfonamide ethanedioate] | 2.2 | 0.29 | 8 | 31 ± 6 | –
CCCCCCC[N+](CC)(CC)CCCCc1ccc(Cl)cc1 [clofilium, 4-chloro-N,N-diethyl-N-heptylbenzenebutanaminium phosphate, reference compound] | 7 | 0.18 | 39 | – | marginal oral bioavailability
CCCCCCCN(CC)C(C)CCCc1ccc(NS(C)(=O)=O)cc1 (centres unmarked) [Example 2, N-[4-[4-(Ethylheptylamino)pentyl]phenyl]methanesulfonamide 2-hydroxy-1,2,3-propanetricarboxylate] | 8 | 0.27 | 30 | – | –
CCCCCCCN(CC)CCCCc1cccc(NS(C)(=O)=O)c1 [Example 7, N-[3-[4-(Ethylheptylamino)butyl]phenyl]methanesulfonamide] | – | – | – | 20 ± 9 | –
CCCCCCCN(CC)CCCCc1ccc(NS(=O)(=O)CC)cc1 [Example 8, N-[4-[4-(Ethylheptylamino)butyl]phenyl]ethanesulfonamide] | – | – | – | 19 ± 4 | –
CCCCCCCN(CCCC)CCCCc1ccc(NS(C)(=O)=O)cc1 [Example 3, N-[4-[4-(Butylheptylamino)butyl]phenyl]methanesulfonamide ethanedioate] | 2.4 | 0.1 | 24 | 26 ± 4 | –
CCCCCCCN(CC)CCCCc1ccc([N+](=O)[O-])cc1.O=C(O)C(=O)O [N-ethyl-N-heptyl-4-nitrobenzenebutanamine, ethanedioic acid, reference compound] | 1.1 | 0.06 | 18 | – | –
